# Numbered stars: 1 amine (or outer) side, 2 acyl side, 3 side chain; on linkers, the order of the positions; unused ones are H or OH. Bridge positions count the residues as written; N and C are the ends. Square brackets hold non-standard residues; d marks the D form. Side chains are listed from the residue outwards. Peptide text beside a SMILES is read from it. ξ: configuration not given here. ξPro(4ξ-NH2) = O=C(C1CC(N[*:3])CN1[*:1])[*:2]; ξpGlu = O=C1CCC(C(=O)O)N1
# Experiments:
# [1] = target: T1, Nicotinic acetylcholine receptor alpha6/alpha3/beta4 (Rattus norvegicus, UniProt P04757+P12392+P43143); test: Inhibition of rat alpha6/alpha3beta4 nAChR expressed in Xenopus Oocytes in presence of acetylcholine by Voltage-clamp recording; type: cell-based
# [2] = species: Rattus norvegicus; test: Selectivity ratio of IC50 for rat alpha6/alpha3beta4 nAChR expressed in Stage V-VI Xenopus laevis oocytes in presence of acetylcholine to IC50 for rat alpha3beta4 nAChR expressed in Stage V-VI Xenopus laevis Oocytes in presence of acetylcholine by electrophysiological recording; type: cell-based
# [3] = target: Neuronal acetylcholine receptor subunit alpha-7 (Rattus norvegicus) (UniProt Q05941); test: Inhibition of rat alpha7 nAChR expressed in Stage V-VI Xenopus laevis Oocytes assessed as inhibition of acetylcholine-induced current at 10 uM in presence of acetylcholine by electrophysiological recording relative to control; type: cell-based; settings: Oocyte
# [4] = target: Neuronal acetylcholine receptor; alpha2/beta4 (Rattus norvegicus, UniProt P12389+P12392); test: Inhibition of rat alpha2/beta4 nAChR expressed in Stage V-VI Xenopus laevis Oocytes assessed as inhibition of acetylcholine-induced current in presence of acetylcholine by electrophysiological recording; type: cell-based, Oocyte
# [5] = target: Neuronal acetylcholine receptor; alpha3/beta2 (Rattus norvegicus, UniProt P04757+P12390); test: Inhibition of rat alpha3/beta2 nAChR expressed in Stage V-VI Xenopus laevis Oocytes assessed as inhibition of acetylcholine-induced current in presence of acetylcholine by electrophysiological recording; type: cell-based, Oocyte
# [6] = target: Neuronal acetylcholine receptor; alpha3/beta4 (Rattus norvegicus, UniProt P04757+P12392); test: Inhibition of rat alpha3/beta4 nAChR expressed in Stage V-VI Xenopus laevis Oocytes assessed as inhibition of acetylcholine-induced current in presence of acetylcholine by electrophysiological recording; type: cell-based, Oocyte
# [7] = target: Nicotinic acetylcholine receptor alpha6/alpha3/beta2/beta3 (Rattus norvegicus, UniProt P04757+P12390+P12391+P43143); test: Inhibition of rat alpha6/alpha3beta2beta3 nAChR expressed in Stage V-VI Xenopus laevis Oocytes assessed as inhibition of acetylcholine-induced current in presence of acetylcholine by electrophysiological recording; type: cell-based, Oocyte
# [8] = target: Neuronal acetylcholine receptor; alpha4/beta4 (Rattus norvegicus, UniProt P09483+P12392); test: Inhibition of rat alpha4/beta4 nAChR expressed in Stage V-VI Xenopus laevis Oocytes assessed as inhibition of acetylcholine-induced current in presence of acetylcholine by electrophysiological recording; type: cell-based, Oocyte
# [9] = target: Neuronal acetylcholine receptor; alpha4/beta2 (Rattus norvegicus, UniProt P09483+P12390); test: Inhibition of rat alpha4/beta2 nAChR expressed in Stage V-VI Xenopus laevis Oocytes assessed as inhibition of acetylcholine-induced current in presence of acetylcholine by electrophysiological recording; type: cell-based, Oocyte
# [10] = target: Neuronal acetylcholine receptor; alpha4/beta2 (Rattus norvegicus) (UniProt P09483+P12390); test: Inhibition of rat alpha4/beta2 nAChR expressed in Stage V-VI Xenopus laevis Oocytes assessed as inhibition of acetylcholine-induced current at 10 uM in presence of acetylcholine by electrophysiological recording relative to control; type: cell-based; settings: Oocyte
# [11] = target: Neuronal acetylcholine receptor; alpha3/beta2 (Rattus norvegicus) (UniProt P04757+P12390); test: Inhibition of rat alpha3/beta2 nAChR expressed in Stage V-VI Xenopus laevis Oocytes assessed as inhibition of acetylcholine-induced current at 10 uM in presence of acetylcholine by electrophysiological recording relative to control; type: cell-based; settings: Oocyte
# [12] = target: Nicotinic acetylcholine receptor alpha9/alpha10 (Rattus norvegicus, UniProt P43144+Q9JLB5); test: Inhibition of rat alpha9/alpha10 nAChR expressed in Stage V-VI Xenopus laevis Oocytes assessed as inhibition of acetylcholine-induced current in presence of acetylcholine by electrophysiological recording; type: cell-based, Oocyte
# [13] = target: Neuronal acetylcholine receptor; alpha2/beta4 (Rattus norvegicus) (UniProt P12389+P12392); test: Inhibition of rat alpha2/beta4 nAChR expressed in Stage V-VI Xenopus laevis Oocytes assessed as inhibition of acetylcholine-induced current at 10 uM in presence of acetylcholine by electrophysiological recording relative to control; type: cell-based; settings: Oocyte
# [14] = target: Neuronal acetylcholine receptor; alpha2/beta2 (Rattus norvegicus) (UniProt P12389+P12390); test: Inhibition of rat alpha2/beta2 nAChR expressed in Stage V-VI Xenopus laevis Oocytes assessed as inhibition of acetylcholine-induced current at 10 uM in presence of acetylcholine by electrophysiological recording relative to control; type: cell-based; settings: Oocyte
# [15] = target: Nicotinic acetylcholine receptor alpha6/alpha3/beta2/beta3 (Rattus norvegicus) (UniProt P04757+P12390+P12391+P43143); test: Inhibition of rat alpha6/alpha3beta2beta3 nAChR expressed in Stage V-VI Xenopus laevis Oocytes assessed as inhibition of acetylcholine-induced current at 10 uM in presence of acetylcholine by electrophysiological recording relative to control; type: cell-based; settings: Oocyte
# [16] = target: T1, Nicotinic acetylcholine receptor alpha6/alpha3/beta4; test: Inhibition of rat alpha6/alpha3beta4 nAChR expressed in Stage V-VI Xenopus laevis Oocytes assessed as inhibition of acetylcholine-induced current in presence of acetylcholine by electrophysiological recording; type: cell-based, Oocyte
# [17] = target: Neuronal acetylcholine receptor; alpha3/beta4 (Rattus norvegicus) (UniProt P04757+P12392); test: Inhibition of rat alpha3/beta4 nAChR expressed in Stage V-VI Xenopus laevis Oocytes assessed as inhibition of acetylcholine-induced current at 10 uM in presence of acetylcholine by electrophysiological recording relative to control; type: cell-based; settings: Oocyte
# [18] = target: Neuronal acetylcholine receptor; alpha4/beta4 (Rattus norvegicus) (UniProt P09483+P12392); test: Inhibition of rat alpha4/beta4 nAChR expressed in Stage V-VI Xenopus laevis Oocytes assessed as inhibition of acetylcholine-induced current at 10 uM in presence of acetylcholine by electrophysiological recording relative to control; type: cell-based; settings: Oocyte
# [19] = target: Nicotinic acetylcholine receptor alpha1/beta1/epsilon/delta (Mus musculus) (UniProt P04756+P09690+P02716+P20782); test: Inhibition of mouse alpha1/beta1deltaepsilon nAChR expressed in Stage V-VI Xenopus laevis Oocytes assessed as inhibition of acetylcholine-induced current at 10 uM in presence of acetylcholine by electrophysiological recording relative to control; type: cell-based; settings: Oocyte
# [20] = target: Nicotinic acetylcholine receptor alpha9/alpha10 (Rattus norvegicus) (UniProt P43144+Q9JLB5); test: Inhibition of rat alpha9/alpha10 nAChR expressed in Stage V-VI Xenopus laevis Oocytes assessed as inhibition of acetylcholine-induced current at 10 uM in presence of acetylcholine by electrophysiological recording relative to control; type: cell-based; settings: Oocyte
# [21] = target: Neuronal acetylcholine receptor subunit alpha-7 (Rattus norvegicus, UniProt Q05941); test: Inhibition of rat alpha7 nAChR expressed in Stage V-VI Xenopus laevis Oocytes assessed as inhibition of acetylcholine-induced current in presence of acetylcholine by electrophysiological recording; type: cell-based, Oocyte
# [22] = target: Neuronal acetylcholine receptor; alpha2/beta2 (Rattus norvegicus, UniProt P12389+P12390); test: Inhibition of rat alpha2/beta2 nAChR expressed in Stage V-VI Xenopus laevis Oocytes assessed as inhibition of acetylcholine-induced current in presence of acetylcholine by electrophysiological recording; type: cell-based, Oocyte
# [23] = target: Nicotinic acetylcholine receptor alpha1/beta1/epsilon/delta (Mus musculus, UniProt P02716+P04756+P09690+P20782); test: Inhibition of mouse alpha1/beta1deltaepsilon nAChR expressed in Stage V-VI Xenopus laevis Oocytes assessed as inhibition of acetylcholine-induced current in presence of acetylcholine by electrophysiological recording; type: cell-based, Oocyte
# [24] = target: Nicotinic acetylcholine receptor alpha6/alpha3/beta4 (Rattus norvegicus) (UniProt P04757+P12392+P43143); test: Inhibition of rat alpha6/alpha3beta4 nAChR expressed in Stage V-VI Xenopus laevis Oocytes assessed as inhibition of acetylcholine-induced current by measuring recovery time at 10 uM preincubated with compound for 5 mins followed by washout in presence of acetylcholine by electrophysiological recording; type: cell-based; settings: Oocyte
# T1 sequence (P04757 whole entry): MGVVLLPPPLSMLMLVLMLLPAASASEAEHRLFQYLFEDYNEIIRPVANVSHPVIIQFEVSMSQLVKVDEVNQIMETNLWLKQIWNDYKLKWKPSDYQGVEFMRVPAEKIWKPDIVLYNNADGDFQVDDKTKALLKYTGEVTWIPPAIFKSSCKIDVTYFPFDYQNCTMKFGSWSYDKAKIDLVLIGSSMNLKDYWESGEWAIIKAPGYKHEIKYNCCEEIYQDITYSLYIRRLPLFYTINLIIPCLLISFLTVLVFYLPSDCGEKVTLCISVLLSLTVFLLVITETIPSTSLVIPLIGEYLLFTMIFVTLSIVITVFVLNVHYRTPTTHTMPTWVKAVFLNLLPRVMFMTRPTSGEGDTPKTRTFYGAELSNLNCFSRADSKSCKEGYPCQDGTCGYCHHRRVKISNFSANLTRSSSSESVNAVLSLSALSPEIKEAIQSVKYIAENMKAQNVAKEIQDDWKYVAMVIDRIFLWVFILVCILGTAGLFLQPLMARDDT
# T1 sequence (P12392 whole entry): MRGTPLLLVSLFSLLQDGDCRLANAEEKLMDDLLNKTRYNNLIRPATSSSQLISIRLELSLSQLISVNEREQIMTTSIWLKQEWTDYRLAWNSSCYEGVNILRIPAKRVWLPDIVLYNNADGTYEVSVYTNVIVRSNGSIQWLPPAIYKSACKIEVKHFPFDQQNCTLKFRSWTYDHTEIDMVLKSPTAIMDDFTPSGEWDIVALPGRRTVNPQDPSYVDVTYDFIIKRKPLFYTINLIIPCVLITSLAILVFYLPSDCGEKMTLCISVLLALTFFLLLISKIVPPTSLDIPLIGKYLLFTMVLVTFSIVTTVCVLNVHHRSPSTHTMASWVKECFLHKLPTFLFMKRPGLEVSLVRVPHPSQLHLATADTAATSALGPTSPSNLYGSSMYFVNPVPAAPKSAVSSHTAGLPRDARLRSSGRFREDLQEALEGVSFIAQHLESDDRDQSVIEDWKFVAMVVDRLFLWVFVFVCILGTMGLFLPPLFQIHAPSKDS
# T1 sequence (P43143 whole entry): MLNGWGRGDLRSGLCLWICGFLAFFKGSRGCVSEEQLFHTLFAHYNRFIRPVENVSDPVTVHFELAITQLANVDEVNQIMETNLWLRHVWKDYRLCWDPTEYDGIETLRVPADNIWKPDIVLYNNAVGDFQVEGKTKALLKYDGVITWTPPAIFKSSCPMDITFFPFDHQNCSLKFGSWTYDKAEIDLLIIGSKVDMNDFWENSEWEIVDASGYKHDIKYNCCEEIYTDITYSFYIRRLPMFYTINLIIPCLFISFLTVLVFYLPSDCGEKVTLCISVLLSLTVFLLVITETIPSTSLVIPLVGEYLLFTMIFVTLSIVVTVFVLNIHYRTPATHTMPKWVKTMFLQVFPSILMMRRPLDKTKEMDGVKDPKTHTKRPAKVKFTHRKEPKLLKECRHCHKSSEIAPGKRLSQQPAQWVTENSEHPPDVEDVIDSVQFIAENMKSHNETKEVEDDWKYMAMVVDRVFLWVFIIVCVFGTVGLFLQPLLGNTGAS
# Sequence of Nicotinic acetylcholine receptor alpha1/beta1/epsilon/delta (P04756 whole entry): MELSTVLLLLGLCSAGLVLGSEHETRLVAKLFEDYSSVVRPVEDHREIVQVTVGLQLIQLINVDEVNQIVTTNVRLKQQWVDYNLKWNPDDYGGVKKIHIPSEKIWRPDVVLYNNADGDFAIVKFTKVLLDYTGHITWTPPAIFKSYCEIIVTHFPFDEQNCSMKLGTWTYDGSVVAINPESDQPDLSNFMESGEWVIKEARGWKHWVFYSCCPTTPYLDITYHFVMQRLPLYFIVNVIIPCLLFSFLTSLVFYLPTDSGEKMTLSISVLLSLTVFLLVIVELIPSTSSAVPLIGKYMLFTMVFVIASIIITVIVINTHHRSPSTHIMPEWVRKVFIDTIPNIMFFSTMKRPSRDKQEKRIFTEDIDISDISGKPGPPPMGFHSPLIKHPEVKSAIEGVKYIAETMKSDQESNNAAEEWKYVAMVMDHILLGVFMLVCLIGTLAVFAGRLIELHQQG
# Sequence of Nicotinic acetylcholine receptor alpha1/beta1/epsilon/delta (P09690 whole entry): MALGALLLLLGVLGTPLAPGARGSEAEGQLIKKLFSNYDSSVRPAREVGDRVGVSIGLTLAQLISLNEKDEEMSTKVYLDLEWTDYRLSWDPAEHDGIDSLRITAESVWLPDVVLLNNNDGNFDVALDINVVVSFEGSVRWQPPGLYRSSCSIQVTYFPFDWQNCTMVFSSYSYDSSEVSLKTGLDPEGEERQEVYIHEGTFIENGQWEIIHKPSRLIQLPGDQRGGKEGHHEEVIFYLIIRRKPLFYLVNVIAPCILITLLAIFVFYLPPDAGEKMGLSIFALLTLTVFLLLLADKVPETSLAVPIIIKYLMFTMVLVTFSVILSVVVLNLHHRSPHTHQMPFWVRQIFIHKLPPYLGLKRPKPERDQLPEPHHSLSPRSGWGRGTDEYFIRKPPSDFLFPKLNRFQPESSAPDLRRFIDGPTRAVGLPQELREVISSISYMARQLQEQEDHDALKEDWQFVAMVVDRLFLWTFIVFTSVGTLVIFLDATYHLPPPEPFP
# Sequence of Nicotinic acetylcholine receptor alpha1/beta1/epsilon/delta (P02716 whole entry): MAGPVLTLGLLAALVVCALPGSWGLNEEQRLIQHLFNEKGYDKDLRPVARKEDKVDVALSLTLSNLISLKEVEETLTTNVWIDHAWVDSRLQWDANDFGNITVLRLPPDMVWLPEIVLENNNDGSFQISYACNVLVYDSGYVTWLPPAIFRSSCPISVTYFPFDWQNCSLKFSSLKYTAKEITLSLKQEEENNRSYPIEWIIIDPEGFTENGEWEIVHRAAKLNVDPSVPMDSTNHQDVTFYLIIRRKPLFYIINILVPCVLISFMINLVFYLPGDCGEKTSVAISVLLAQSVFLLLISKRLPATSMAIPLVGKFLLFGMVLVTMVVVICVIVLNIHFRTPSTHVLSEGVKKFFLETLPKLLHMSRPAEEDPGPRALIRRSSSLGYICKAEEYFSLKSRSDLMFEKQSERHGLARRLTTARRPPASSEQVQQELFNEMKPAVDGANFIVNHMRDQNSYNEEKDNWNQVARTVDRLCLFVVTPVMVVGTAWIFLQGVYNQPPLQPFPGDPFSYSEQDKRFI
# Sequence of Nicotinic acetylcholine receptor alpha1/beta1/epsilon/delta (P20782 whole entry): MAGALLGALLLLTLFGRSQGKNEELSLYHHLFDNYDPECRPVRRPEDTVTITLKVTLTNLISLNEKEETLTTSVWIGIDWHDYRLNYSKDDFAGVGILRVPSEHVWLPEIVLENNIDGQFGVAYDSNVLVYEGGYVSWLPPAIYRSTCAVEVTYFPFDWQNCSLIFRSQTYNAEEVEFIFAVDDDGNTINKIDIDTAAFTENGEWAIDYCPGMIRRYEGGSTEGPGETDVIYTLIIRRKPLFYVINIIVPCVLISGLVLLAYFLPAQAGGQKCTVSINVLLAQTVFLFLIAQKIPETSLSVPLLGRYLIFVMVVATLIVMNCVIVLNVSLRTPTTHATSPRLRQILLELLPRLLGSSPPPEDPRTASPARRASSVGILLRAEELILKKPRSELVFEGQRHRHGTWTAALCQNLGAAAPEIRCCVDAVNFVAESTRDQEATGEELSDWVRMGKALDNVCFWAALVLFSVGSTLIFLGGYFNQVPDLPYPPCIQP
# Sequence of Neuronal acetylcholine receptor subunit alpha-7 (Q05941 whole entry): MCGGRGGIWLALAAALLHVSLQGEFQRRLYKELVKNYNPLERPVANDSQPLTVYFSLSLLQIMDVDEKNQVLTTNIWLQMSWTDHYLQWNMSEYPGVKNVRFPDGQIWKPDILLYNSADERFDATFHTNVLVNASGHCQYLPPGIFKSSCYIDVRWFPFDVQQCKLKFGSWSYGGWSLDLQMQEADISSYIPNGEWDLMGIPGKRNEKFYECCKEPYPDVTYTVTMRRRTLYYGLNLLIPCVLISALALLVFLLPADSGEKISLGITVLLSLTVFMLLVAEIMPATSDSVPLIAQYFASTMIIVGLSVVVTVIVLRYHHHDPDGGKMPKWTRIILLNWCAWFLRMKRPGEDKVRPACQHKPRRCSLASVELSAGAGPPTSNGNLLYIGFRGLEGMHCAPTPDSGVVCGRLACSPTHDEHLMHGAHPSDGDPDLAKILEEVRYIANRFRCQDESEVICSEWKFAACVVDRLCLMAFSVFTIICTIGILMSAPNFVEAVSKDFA
# Sequence of Neuronal acetylcholine receptor subunit alpha-7 (Rattus norvegicus) (Q05941 whole entry): as above
# Sequence of Neuronal acetylcholine receptor; alpha4/beta4 (P09483 whole entry): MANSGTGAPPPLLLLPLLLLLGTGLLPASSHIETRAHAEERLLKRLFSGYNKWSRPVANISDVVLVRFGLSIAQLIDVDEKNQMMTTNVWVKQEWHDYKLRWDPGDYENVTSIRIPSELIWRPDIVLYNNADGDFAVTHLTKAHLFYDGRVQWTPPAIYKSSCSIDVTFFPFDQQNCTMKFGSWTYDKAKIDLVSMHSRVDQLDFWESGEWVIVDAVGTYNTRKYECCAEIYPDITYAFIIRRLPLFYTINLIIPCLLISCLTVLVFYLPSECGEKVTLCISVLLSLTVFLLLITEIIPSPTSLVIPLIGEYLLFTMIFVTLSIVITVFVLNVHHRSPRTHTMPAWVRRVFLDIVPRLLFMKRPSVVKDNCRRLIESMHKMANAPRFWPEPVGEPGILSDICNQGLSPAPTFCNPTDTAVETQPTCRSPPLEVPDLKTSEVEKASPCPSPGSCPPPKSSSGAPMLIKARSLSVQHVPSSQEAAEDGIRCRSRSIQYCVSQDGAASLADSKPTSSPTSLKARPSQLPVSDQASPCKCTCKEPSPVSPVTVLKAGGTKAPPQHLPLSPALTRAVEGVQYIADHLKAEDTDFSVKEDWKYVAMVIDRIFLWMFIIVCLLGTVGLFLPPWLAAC
# Sequence of Neuronal acetylcholine receptor; alpha4/beta4 (P12392 whole entry): as the sequence (P12392 whole entry) above
# Sequence of Neuronal acetylcholine receptor; alpha3/beta4 (P04757 whole entry): as the sequence (P04757 whole entry) above
# Sequence of Neuronal acetylcholine receptor; alpha3/beta4 (P12392 whole entry): as the sequence (P12392 whole entry) above
Structure (SMILES),inhibition [3],IC50 [4],IC50 [5],IC50 [6],IC50 [7],IC50 [8],IC50 [9],inhibition [10],inhibition [11],IC50 [12],inhibition [13],inhibition [14],inhibition [15],IC50 [16],inhibition [17],inhibition [18],inhibition [19],inhibition [20],IC50 [21],TIME [24],also measured
CC(C)C[C@H](NC(=O)[C@@H](NC(=O)[C@H](C)NC(=O)[C@H](CS)NC(=O)[C@@H]1CCCN1C(=O)[C@@H]1CCC(=O)N1C(=O)[C@H](C)NC(=O)[C@H](CO)NC(=O)[C@H](CS)NC(=O)[C@H](CS)NC(=O)CN)C(C)C)C(=O)N[C@@H](Cc1ccc(O)cc1)C(=O)N[C@@H](CS)C(N)=O,–,–,–,–,–,–,–,–,–,–,–,–,–,–,–,–,–,–,–,–,IC50 [1]: 0.0581 µM; Ratio [2]: 20
CC(C)[C@H](NC(=O)[C@@H]1CCCN1C(=O)[C@H](CC(N)=O)NC(=O)[C@H](C)NC(=O)[C@H](CS)NC(=O)[C@H](CS)NC(=O)[C@@H](N)CC(=O)O)C(=O)N[C@@H](CS)C(=O)N[C@@H](CC(N)=O)C(=O)NCC(=O)N[C@@H](CCCCN)C(=O)N[C@@H](Cc1cnc[nH]1)C(=O)N[C@@H](CS)C(N)=O (H-DCCANPVCNGKHC-NH2),< 50%,> 10 µM,> 10 µM,> 10 µM,> 10 µM,> 10 µM,> 10 µM,< 50%,< 50%,> 10 µM,< 50%,< 50%,< 50%,0.31 µM,< 50%,< 50%,< 50%,< 50%,> 10 µM,–,IC50 [22]: > 10 µM; IC50 [23]: > 10 µM
"CC(C)[C@@H]1NC(=O)[C@@H]2CCCN2C(=O)[C@H](CC(N)=O)NC(=O)[C@H](C)NC(=O)[C@@H]2CSSC[C@@H](C(=O)N[C@@H](CCC(N)=O)C(=O)O)NC(=O)[C@H](Cc3cnc[nH]3)NC(=O)[C@H](CCCCN)NC(=O)CNC(=O)[C@H](CC(N)=O)NC(=O)[C@H](CSSC[C@H](NC(=O)[C@@H](N)CC(=O)O)C(=O)N2)NC1=O (H-DCCANPVCNGKHCQ-OH; disulfide 2-8, 3-13)",< 50%,> 10 µM,> 10 µM,> 10 µM,> 10 µM,> 10 µM,> 10 µM,< 50%,< 50%,> 10 µM,< 50%,< 50%,< 50%,3.3 µM,< 50%,< 50%,< 50%,< 50%,> 10 µM,–,IC50 [22]: > 10 µM; IC50 [23]: > 10 µM
CC(C)[C@H](NC(=O)[C@@H]1CCCN1C(=O)[C@H](CC(N)=O)NC(=O)[C@H](C)NC(=O)[C@H](CS)NC(=O)[C@H](CS)NC(=O)CN)C(=O)N[C@@H](CS)C(=O)N[C@@H](CC(N)=O)C(=O)NCC(=O)N[C@@H](C)C(=O)N[C@@H](Cc1cnc[nH]1)C(=O)N[C@@H](CS)C(N)=O (H-GCCANPVCNGAHC-NH2),–,–,–,–,–,–,–,–,–,–,–,–,–,0.0723 µM,–,–,–,–,–,0.217 h,–
CC(C)[C@H](NC(=O)[C@H](CS)NC(=O)[C@H](C)NC(=O)[C@@H]1CCCN1C(=O)[C@H](CC(N)=O)NC(=O)[C@H](Cc1c[nH]c2ccccc12)NC(=O)[C@H](CS)NC(=O)[C@H](CS)NC(=O)CNC(=O)C1CC(NC(=O)[C@H](CO)NC(=O)C2CCC(=O)N2)CN1)C(=O)N[C@@H](CCCCN)C(=O)N[C@@H](CC(N)=O)C(=O)N[C@@H](CCCNC(=N)N)C(=O)N[C@@H](CS)C(N)=O (stereo not given in full) (H-[ξPro(4ξ-NH2)]([Ser-ξpGlu])GCCWNPACVKNRC-NH2),–,–,–,–,–,–,–,–,–,–,–,–,–,0.094 µM,–,–,–,–,–,0.05 h,–
CC(C)[C@H](NC(=O)[C@H](Cc1cnc[nH]1)NC(=O)[C@H](CCCCN)NC(=O)[C@H](CS)NC(=O)[C@@H]1CCCN1C(=O)[C@@H]1CCCN1C(=O)[C@H](CC(N)=O)NC(=O)[C@H](C)NC(=O)[C@H](CS)NC(=O)[C@H](CS)NC(=O)C1CCC(=O)N1)C(=O)N[C@@H](CC(N)=O)C(=O)N[C@@H](CS)C(=O)N[C@@H](CCCNC(=N)N)C(N)=O (stereo not given in full) ([ξpGlu]CCANPPCKHVNCR-NH2),–,–,–,–,–,–,–,–,–,–,–,–,–,0.0818 µM,–,–,–,–,–,0.15 h,–

# — ChEMBL document CHEMBL5316324, “Discovery, Characterization, and Engineering of LvIC, an α4/4-Conotoxin That Selectively Blocks Rat α6/α3β4 Nicotinic Acetylcholine Receptors” (J Med Chem, 2023)
